# Molecular target: Transient receptor potential cation channel subfamily V member 1 (Homo sapiens, UniProt Q8NER1)
# Test: Agonist activity at human recombinant TRPV1 expressed in human HEK293 cells
# Assay type: functional, cell-based
# Transient receptor potential cation channel subfamily V member 1, sequence (Q8NER1 whole entry): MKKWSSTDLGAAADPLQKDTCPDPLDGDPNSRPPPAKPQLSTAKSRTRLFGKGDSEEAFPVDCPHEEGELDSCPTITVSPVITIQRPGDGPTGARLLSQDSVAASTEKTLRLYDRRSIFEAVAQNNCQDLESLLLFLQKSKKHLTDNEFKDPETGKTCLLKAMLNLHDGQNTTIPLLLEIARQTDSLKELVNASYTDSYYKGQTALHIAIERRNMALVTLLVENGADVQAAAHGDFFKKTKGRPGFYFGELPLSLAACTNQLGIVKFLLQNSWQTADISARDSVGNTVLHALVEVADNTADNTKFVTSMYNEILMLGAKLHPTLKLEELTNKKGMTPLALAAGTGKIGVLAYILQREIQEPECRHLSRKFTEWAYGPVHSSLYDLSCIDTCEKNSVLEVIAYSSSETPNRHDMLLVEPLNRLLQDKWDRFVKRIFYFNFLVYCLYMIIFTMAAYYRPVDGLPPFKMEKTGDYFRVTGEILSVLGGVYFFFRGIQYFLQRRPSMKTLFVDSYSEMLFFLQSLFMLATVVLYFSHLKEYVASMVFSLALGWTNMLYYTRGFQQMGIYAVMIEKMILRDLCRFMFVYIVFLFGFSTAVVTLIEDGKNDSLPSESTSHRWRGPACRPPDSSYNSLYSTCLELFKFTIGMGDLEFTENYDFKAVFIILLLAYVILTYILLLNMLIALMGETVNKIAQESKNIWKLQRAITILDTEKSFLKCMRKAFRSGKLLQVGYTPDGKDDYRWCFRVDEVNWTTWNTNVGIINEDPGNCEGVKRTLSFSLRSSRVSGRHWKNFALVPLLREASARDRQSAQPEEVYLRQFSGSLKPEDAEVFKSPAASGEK
row,SMILES,EC50
1,C=C(C)[C@]12C[C@@H](C)[C@@]3(OCc4ccccc4)[C@@H](C=C(COC(=O)CCc4cc(I)c(O)c(OC)c4)C[C@]4(O)C(=O)C(C)=C[C@@H]34)[C@H]1OCO2,8.6 nM
2,C=C(C)[C@]12C[C@@H](C)[C@@]3(OCc4ccccc4)[C@@H](C=C(COC(=O)CCc4cc(OC)c(O)cc4I)C[C@]4(O)C(=O)C(C)=C[C@@H]34)[C@H]1OCO2,7.9 nM
3,C=C(C)[C@]12C[C@@H](C)[C@@]3(OCc4ccccc4)[C@@H](C=C(COC(=O)/C=C/c4ccc(O)c(OC)c4)C[C@]4(O)C(=O)C(C)=C[C@@H]34)[C@H]1OCO2,1.5 nM
4,C=C(C)[C@]12C[C@@H](C)[C@@]3(OCc4ccccc4)[C@@H](C=C(COC(=O)CCc4ccccc4)C[C@]4(O)C(=O)C(C)=C[C@@H]34)[C@H]1OCO2,51.5 nM
5,C=C(C)[C@]12C[C@@H](C)[C@@]3(OCc4ccccc4)[C@@H](C=C(COC(=O)c4ccc(O)c(OC)c4)C[C@]4(O)C(=O)C(C)=C[C@@H]34)[C@H]1OCO2,9.4 nM
6,C=C(C)[C@]12C[C@@H](C)[C@@]3(OCc4ccccc4)[C@@H](C=C(COC(=O)CCc4ccc(O)c(OC)c4)C[C@]4(O)C(=O)C(C)=C[C@@H]34)[C@H]1OCO2,4.6 nM
7,C=C(C)[C@]12C[C@@H](C)[C@@]3(OCc4ccccc4)[C@@H](C=C(COC(=O)c4ccccc4)C[C@]4(O)C(=O)C(C)=C[C@@H]34)[C@H]1OCO2,25.5 nM
8,C=C(C)[C@]12C[C@@H](C)[C@@]3(OCc4ccccc4)[C@@H](C=C(COC(=O)Cc4ccccc4)C[C@]4(O)C(=O)C(C)=C[C@@H]34)[C@H]1OCO2,4.7 nM
9,C=C(C)[C@]12C[C@@H](C)[C@@]3(OCc4ccccc4)[C@@H](C=C(COC(=O)/C=C/c4ccccc4)C[C@]4(O)C(=O)C(C)=C[C@@H]34)[C@H]1OCO2,69.5 nM
10,C=C(C)[C@]12C[C@@H](C)[C@@]3(OCc4ccccc4)[C@@H](C=C(COC(=O)c4cc(OC)c(O)cc4I)C[C@]4(O)C(=O)C(C)=C[C@@H]34)[C@H]1OCO2,15.2 nM
11,C=C(C)[C@]12C[C@@H](C)[C@@]3(OCc4ccccc4)[C@@H](C=C(COC(=O)c4cc(I)c(O)c(OC)c4)C[C@]4(O)C(=O)C(C)=C[C@@H]34)[C@H]1OCO2,1.9 nM
12,C=C(C)[C@]12C[C@@H](C)[C@@]34O[C@](Cc5ccccc5)(O[C@@H]1[C@@H]3C=C(COC(=O)Cc1ccc(O)c(OC)c1)C[C@]1(O)C(=O)C(C)=C[C@@H]41)O2 [RESINIFERATOXIN],0.019 nM

# Source: ChEMBL document CHEMBL1146259, “Structure-activity relationships of the ultrapotent vanilloid resiniferatoxin (RTX): the homovanillyl moiety” (Bioorg Med Chem Lett, 2007)
